Holding throughout (test): cells
The test system of one assay is NB7. The assay is classed as functional, cell-based. To be noted: Homo sapiens.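 Also: growth inhibition of NB7 cells, read out with a cell viability assay.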
For the next assay, the system named is MEG-01. The assay is classed as functional, cell-based. To be noted: Homo sapiens.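 Also: growth inhibition of MEG-01 cells, read out by a cell viability assay.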
In another assay the test system is GI-ME-N. The assay is classed as functional, cell-based, Homo sapiens. To be noted: Homo sapiens, GI-ME-N.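 Also: growth inhibition of human GI-ME-N cells, read out with a cell viability assay.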
For another assay, the system named is OS-RC-2. The assay is classed as functional, cell-based, Homo sapiens. To be noted: Homo sapiens, OS-RC-2.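 Also: growth inhibition of human OS-RC-2 cells, measured by a cell viability assay.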
Another assay deals with PSN1. The assay is classed as functional, cell-based, Homo sapiens. The note with it: Homo sapiens, PSN1.
The next assay concerns GOTO. The assay is classed as functional, cell-based, Homo sapiens. The note with it: Homo sapiens, GOTO.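 Also: growth inhibition of GOTO cells, read out by a cell viability assay.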
The next assay relates to EW-11. The class given is functional, cell-based, Homo sapiens. The note with it: Homo sapiens, EW-11.
Another assay has as its system SK-LMS-1. The class given is functional, cell-based, Homo sapiens. To be noted: Homo sapiens, SK-LMS-1.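 Also: growth inhibition of human SK-LMS-1 cells, read out with a cell viability assay.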
In the next assay the test system is LU-139. The assay is classed as functional, cell-based. The note with it: Homo sapiens.
The next assay relates to TE-9. The class given is functional, cell-based, Homo sapiens. To be noted: Homo sapiens, TE-9.
For a further assay, the system named is HT. The class given is functional, cell-based. To be noted: Homo sapiens.
Another assay concerns CTV-1. The class given is functional, cell-based. The note with it: Homo sapiens.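 Also: growth inhibition of the cell line, read out with a cell viability assay.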
In another assay the test system is NCI-H226. The assay is classed as functional, cell-based, Homo sapiens. The note with it: Homo sapiens, NCI-H226.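 Also: cell viability read-out used to gauge growth inhibition of the cells.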
The test system of the next assay is VA-ES-BJ. The assay is classed as functional, cell-based, Homo sapiens. To be noted: Homo sapiens, VA-ES-BJ.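 Also: growth inhibition of the VA-ES-BJ cell line, read out by a cell viability assay.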
For the next assay, the system named is NEC8. The assay is classed as functional, cell-based, Homo sapiens. The note with it: Homo sapiens, NEC8.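 Also: growth inhibition of human NEC8 cells, read out by a cell viability assay.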
A further assay deals with NCI-H720. The class given is functional, cell-based. To be noted: Homo sapiens.
The next assay has as its system SK-N-FI. The assay is classed as functional, cell-based, Homo sapiens. The note with it: Homo sapiens, SK-N-FI.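 Also: cell viability assay measuring growth inhibition of human SK-N-FI cells.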
The subject of another assay is KP-N-YN. The assay is classed as functional, cell-based. To be noted: Homo sapiens.
For the next assay, the system named is DEL. The class given is functional, cell-based. To be noted: Homo sapiens.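 Also: growth inhibition of the human DEL cell line, read out with a cell viability assay.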
For the next assay, the system named is MOLT-4. The assay is classed as functional, cell-based. The note with it: Homo sapiens.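 Also: growth inhibition of MOLT-4 cells, determined with a cell viability readout.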
A further assay relates to KE-37. The assay is classed as functional, cell-based. The note with it: Homo sapiens.
Another assay concerns IA-LM. The assay is classed as functional, cell-based, Homo sapiens. The note with it: Homo sapiens, IA-LM.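 Also: cell viability assay measuring growth inhibition of human IA-LM cells.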

Where only a bound is given, the exact number is not on record here.

From ChEMBL document CHEMBL1201861, “Genomics of Drug Sensitity in Cancer screening data, Wellcome Trust Sanger Institute” come the findings set out here.

For orientation: IC50 means the concentration that gives 50% inhibition. A high value points to weaker potency in that assay.

Description for CTV-1: SANGER: Inhibition of human CTV-1 cell growth in a cell viability assay.
Description for DEL: SANGER: Inhibition of human DEL cell growth in a cell viability assay.
Description for EW-11: SANGER: Inhibition of human EW-11 cell growth in a cell viability assay.
Description for GI-ME-N: SANGER: Inhibition of human GI-ME-N cell growth in a cell viability assay.
Description for GOTO: SANGER: Inhibition of human GOTO cell growth in a cell viability assay.
Description for HT: SANGER: Inhibition of human HT cell growth in a cell viability assay.
Description for IA-LM: SANGER: Inhibition of human IA-LM cell growth in a cell viability assay.
Description for KP-N-YN: SANGER: Inhibition of human KP-N-YN cell growth in a cell viability assay.
Description for LU-139: SANGER: Inhibition of human LU-139 cell growth in a cell viability assay.
Description for MEG-01: SANGER: Inhibition of human MEG-01 cell growth in a cell viability assay.
Description for MOLT-4: SANGER: Inhibition of human MOLT-4 cell growth in a cell viability assay.
Description for NB7: SANGER: Inhibition of human NB7 cell growth in a cell viability assay.
Description for NCI-H226: SANGER: Inhibition of human NCI-H226 cell growth in a cell viability assay.
Description for NCI-H720: SANGER: Inhibition of human NCI-H720 cell growth in a cell viability assay.
Description for NEC8: SANGER: Inhibition of human NEC8 cell growth in a cell viability assay.
Description for OS-RC-2: SANGER: Inhibition of human OS-RC-2 cell growth in a cell viability assay.
Description for PSN1: SANGER: Inhibition of human PSN1 cell growth in a cell viability assay.
Description for SK-LMS-1: SANGER: Inhibition of human SK-LMS-1 cell growth in a cell viability assay.
Description for SK-N-FI: SANGER: Inhibition of human SK-N-FI cell growth in a cell viability assay.
Description for TE-9: SANGER: Inhibition of human TE-9 cell growth in a cell viability assay.
Description for VA-ES-BJ: SANGER: Inhibition of human VA-ES-BJ cell growth in a cell viability assay.

Regarding `CC1=C2C[C@H]3[C@@H](CC=C4C[C@@H](O)CC[C@@]43C)[C@@H]2CC[C@]12O[C@@H]1C[C@H](C)CN[C@H]1[C@H]2C` [CYCLOPAMINE], the IC50 is more than 16000 nM in the assay with NB7; more than 16000 nM with MEG-01; more than 16000 nM with GI-ME-N; 5870 nM in the assay on OS-RC-2; more than 16000 nM with PSN1; more than 16000 nM with GOTO. In addition, the IC50 in the assay on EW-11, in the assay with SK-LMS-1, with LU-139, with TE-9, in the assay on HT and with CTV-1 was more than 16000 nM in each case. The IC50 in the assay with NCI-H226, with VA-ES-BJ, in the assay on NEC8, with NCI-H720, in the assay on SK-N-FI and in the assay on KP-N-YN was more than 16000 nM throughout. The IC50 with DEL, in the assay with MOLT-4 and with KE-37 was more than 16000 nM throughout.
Regarding `CN1CCN(CCOc2cc(OC3CCOCC3)c3c(Nc4c(Cl)ccc5c4OCO5)ncnc3c2)CC1` [SARACATINIB], the 50% inhibitory concentration (IC50) is more than 2000 nM in the assay with NB7; 237 nM with MEG-01; more than 2000 nM in the assay with GI-ME-N; 1890 nM with OS-RC-2; more than 2000 nM in the assay with PSN1; more than 2000 nM in the assay with GOTO. The IC50 was more than 2000 nM in the assay on EW-11; more than 2000 nM in the assay on SK-LMS-1; more than 2000 nM in the assay on LU-139; more than 2000 nM in the assay with TE-9; more than 2000 nM in the assay on HT; 61.4 nM in the assay with CTV-1. The IC50 with NCI-H226, in the assay with VA-ES-BJ, in the assay with NEC8, in the assay with NCI-H720, in the assay with SK-N-FI and with DEL was more than 2000 nM in each case. Moreover, the IC50 with IA-LM, in the assay on MOLT-4 and with KE-37 was more than 2000 nM throughout.
Regarding `CS(=O)(=O)CCNCc1ccc(-c2ccc3ncnc(Nc4ccc(OCc5cccc(F)c5)c(Cl)c4)c3c2)o1` [LAPATINIB], the IC50 in the assay on NB7 is more than 2000 nM; with MEG-01, more than 2000 nM; in the assay on GI-ME-N, more than 2000 nM; with OS-RC-2, 1990 nM; in the assay with PSN1 it was more than 2000 nM; with GOTO, more than 2000 nM. Also, the IC50 in the assay on EW-11 was more than 2000 nM; with SK-LMS-1, more than 2000 nM; in the assay on LU-139 it was more than 2000 nM; in the assay with TE-9, 745 nM; in the assay on HT, more than 2000 nM; with CTV-1, more than 2000 nM. For the same compound, the IC50 in the assay with NCI-H226, in the assay on VA-ES-BJ, in the assay with NEC8, in the assay on NCI-H720, in the assay with SK-N-FI and in the assay with DEL was more than 2000 nM in each case. Besides, the IC50 with MOLT-4 and in the assay on KE-37 was more than 2000 nM throughout.
For `CCc1nc(N)nc(N)c1-c1ccc(Cl)cc1` [PYRIMETHAMINE], the IC50 with NB7 is more than 20000 nM; in the assay with MEG-01 it was 11800 nM; with GI-ME-N it was 1400 nM; in the assay on OS-RC-2, 2610 nM; with PSN1, 2860 nM; in the assay on GOTO, more than 20000 nM. The IC50 in the assay on EW-11 is more than 20000 nM; in the assay on SK-LMS-1, more than 20000 nM; in the assay on LU-139 it was 11100 nM; with TE-9, more than 20000 nM; in the assay with HT it was more than 20000 nM; in the assay with CTV-1, 2480 nM. Also, the IC50 in the assay with NCI-H226 was more than 20000 nM; in the assay on VA-ES-BJ it was 15200 nM; with NEC8, 1500 nM; in the assay on NCI-H720 it was more than 20000 nM; in the assay with SK-N-FI, more than 20000 nM; with KP-N-YN, more than 20000 nM. Moreover, the IC50 with DEL came to 3930 nM; in the assay on MOLT-4 it was 5430 nM; in the assay on KE-37, 10200 nM.
`CNC(=O)c1cc(Oc2ccc(NC(=O)Nc3ccc(Cl)c(C(F)(F)F)c3)cc2)ccn1` [SORAFENIB]: the IC50 with NB7 is more than 4000 nM; in the assay on MEG-01, 1810 nM; with GI-ME-N, more than 4000 nM; with OS-RC-2, more than 4000 nM; in the assay with PSN1, more than 4000 nM; in the assay with GOTO, more than 4000 nM. The IC50 with EW-11, with SK-LMS-1, in the assay with LU-139, with TE-9, in the assay on HT and in the assay on CTV-1 was more than 4000 nM each time. The IC50 in the assay with NCI-H226, with VA-ES-BJ, with NEC8, with NCI-H720, with SK-N-FI and with KP-N-YN was more than 4000 nM throughout. Moreover, the IC50 in the assay on DEL, with MOLT-4 and in the assay with KE-37 was more than 4000 nM each time.
In the case of `O=C(/C=C/c1ccccc1)NC(NC(=S)Nc1cccc2cccnc12)C(Cl)(Cl)Cl` (stereo not drawn) [SALUBRINAL], the IC50 in the assay with NB7, in the assay with MEG-01, in the assay with GI-ME-N, with OS-RC-2, with PSN1 and with GOTO was more than 16000 nM throughout. The IC50 is more than 16000 nM in the assay on EW-11; more than 16000 nM in the assay with SK-LMS-1; 14000 nM in the assay on LU-139; more than 16000 nM in the assay on TE-9; 8940 nM in the assay on HT; more than 16000 nM in the assay with CTV-1. Also, the IC50 was more than 16000 nM in the assay on NCI-H226; more than 16000 nM in the assay with VA-ES-BJ; 6050 nM in the assay with NEC8; 7570 nM with NCI-H720; more than 16000 nM in the assay on SK-N-FI; more than 16000 nM in the assay with KP-N-YN. Also, the IC50 in the assay with DEL is more than 16000 nM; in the assay on MOLT-4, more than 16000 nM; in the assay on KE-37 it was 15300 nM.
On to `CO[C@H]1C[C@@H]2CC[C@@H](C)[C@@](O)(O2)C(=O)C(=O)N2CCCC[C@H]2C(=O)O[C@H]([C@H](C)C[C@@H]2CC[C@@H](O)[C@H](OC)C2)CC(=O)[C@H](C)/C=C(\C)[C@@H](O)[C@@H](OC)C(=O)[C@H](C)C[C@H](C)/C=C/C=C/C=C/1C` [SIROLIMUS], for which the IC50 was more than 100 nM in the assay on NB7; more than 100 nM in the assay with MEG-01; more than 100 nM with GI-ME-N; 0.652 nM with OS-RC-2; more than 100 nM with PSN1; more than 100 nM in the assay on GOTO. The IC50 in the assay with EW-11 was more than 100 nM; in the assay with SK-LMS-1, 2.49 nM; in the assay on LU-139 it was more than 100 nM; in the assay with TE-9, more than 100 nM; in the assay on HT it was 17.6 nM; in the assay with CTV-1, more than 100 nM. The IC50 with NCI-H226 was more than 100 nM; in the assay with VA-ES-BJ, 0.723 nM; in the assay with NEC8, more than 100 nM; in the assay on NCI-H720, 25.4 nM; in the assay with SK-N-FI, more than 100 nM; in the assay on DEL, 18 nM. Moreover, the IC50 in the assay with IA-LM turned out to be 68.1 nM; in the assay on MOLT-4 it was 96.8 nM; with KE-37, 16.1 nM.
Regarding `CCC(=O)N1CCN(c2ccc(-n3c(=O)ccc4cnc5ccc(-c6cnc7ccccc7c6)cc5c43)cc2C(F)(F)F)CC1` [TORIN1], the IC50 is more than 1200 nM in the assay on NB7; 186 nM with MEG-01; 180 nM in the assay on GI-ME-N; 23.2 nM with OS-RC-2; 14.1 nM in the assay on PSN1; 207 nM with GOTO. The IC50 in the assay on EW-11 was more than 1200 nM; with SK-LMS-1 it was 14.1 nM; in the assay on LU-139, 130 nM; with TE-9, 290 nM; in the assay with HT it was 80 nM; in the assay on CTV-1, 65.5 nM. Besides, the IC50 was more than 1200 nM with NCI-H226; 9.84 nM in the assay on VA-ES-BJ; 562 nM with NEC8; 550 nM in the assay with NCI-H720; more than 1200 nM in the assay with SK-N-FI; 28.1 nM in the assay on DEL. In addition, the IC50 in the assay with IA-LM came to 29.2 nM; in the assay with MOLT-4, 66.1 nM; in the assay with KE-37, 15.7 nM.
With `Cc1cc(Nc2cc(N3CCN(C)CC3)nc(Sc3ccc(NC(=O)C4CC4)cc3)n2)n[nH]1` [TOZASERTIB], the IC50 is more than 2000 nM in the assay with NB7; 278 nM in the assay with MEG-01; more than 2000 nM with GI-ME-N; more than 2000 nM with OS-RC-2; 220 nM in the assay with PSN1; more than 2000 nM in the assay on GOTO. The IC50 is more than 2000 nM in the assay with EW-11; 1220 nM with SK-LMS-1; more than 2000 nM with LU-139; more than 2000 nM in the assay with TE-9; more than 2000 nM with HT; 588 nM in the assay with CTV-1. Further, the IC50 was more than 2000 nM in the assay with NCI-H226; 201 nM in the assay on VA-ES-BJ; more than 2000 nM with NEC8; more than 2000 nM in the assay on NCI-H720; more than 2000 nM with SK-N-FI; 1260 nM with DEL. Besides, the IC50 in the assay on IA-LM is more than 2000 nM; with MOLT-4 it was 233 nM; in the assay on KE-37 it was 521 nM.
